Reference: PMC11944513, “Investigation on Human Carbonic Anhydrase IX and XII Inhibitory Activity and A549 Antiproliferative Activity of a New Class of Coumarinamides” (Pharmaceuticals, 2025)

Legend:
[1] = system: normal bronchial epithelial cells (BEAS-2B); assay: cell viability (MTT assay), BEAS-2B; format: cell-based, human; details: for IC50: Homo sapiens, BEAS-2B, 48 h exposure, nonlinear regression, predictive estimates
Procedure: Human bronchial epithelial (BEAS-2B; CRL-3588) and human lung carcinoma (A549; CCL-185) cell lines were obtained from ATCC®. BEAS and A549 cells were maintained in complete RPMI 1640 (Merck, Darmstadt, Germany) at 37 °C and 5% CO2. The medium was supplemented with 10% heat-inactivated fetal bovine serum (FBS), 1% penicillin/streptomycin and 1% sodium pyruvate.
(§1) Cells were seeded at different densities according to the different experimental techniques performed (MTT assay and cell cycle analysis) and left to adhere for 24 h. Next, the medium was removed, and cells were treated with tested compounds, dissolved in dimethyl sulfoxide (DMSO) to achieve concentrations ranging from 0 µM (untreated control = CTRL) to 150 µM. The final DMSO concentration was kept below 0.3%. Cell viability was evaluated at up to 72 h post-treatment. Images were acquired 48 h after treatments by means of a light phase-contrast microscope equipped with a camera (Leica). Images were acquired and analyzed by the Leica Application Suite LAS EZ version 3.4 (Leica, Wetzlar, Germany).
(§2) BEAS and A549 cells were seeded in 96-well culture-treated plates (Falcon®, Corning Incorporated, Brooklyn, NY, USA) at a density of 0.5 × 10^4 cells/well. Untreated cells were set as the experimental control, representing 100% of cell viability. Exposure times varied from 24 up to 72 h. At the established time points (24, 48 and 72 h), the exposure medium was replaced with fresh medium containing 0.5 mg/mL 3-(4,5-dimethylthiazol-2-yl)-2,5-diphenyltetrazolium bromide (MTT) (Merck, Darmstadt, Germany) and processed as previously reported. The optical density in each well was measured at a wavelength of 540 nm using a spectrophotometer (Thermo Fisher Scientific, Waltham, MA, USA). Each experiment was performed in triplicate per experimental conditions (n = 3).

h-CA I = h-CA I (Homo sapiens, UniProt P00915); assay: stopped-flow CO2 hydrase assay, h-CA I
Sequence of h-CA I (P00915 whole entry): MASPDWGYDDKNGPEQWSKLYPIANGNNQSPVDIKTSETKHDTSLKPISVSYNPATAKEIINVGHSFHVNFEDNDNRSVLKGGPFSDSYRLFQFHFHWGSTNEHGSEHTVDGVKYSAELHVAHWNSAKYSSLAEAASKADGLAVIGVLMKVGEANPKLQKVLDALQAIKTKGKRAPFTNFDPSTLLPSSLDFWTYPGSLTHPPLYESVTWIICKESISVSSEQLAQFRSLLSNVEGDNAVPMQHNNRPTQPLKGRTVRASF

h-CA II = h-CA II (Homo sapiens, UniProt P00918); assay: stopped-flow CO2 hydrase assay, h-CA II
h-CA XII = h-CA XII (Homo sapiens, UniProt O43570); assay: stopped-flow CO2 hydrase assay, h-CA XII
Sequence of h-CA XII (O43570 25-354): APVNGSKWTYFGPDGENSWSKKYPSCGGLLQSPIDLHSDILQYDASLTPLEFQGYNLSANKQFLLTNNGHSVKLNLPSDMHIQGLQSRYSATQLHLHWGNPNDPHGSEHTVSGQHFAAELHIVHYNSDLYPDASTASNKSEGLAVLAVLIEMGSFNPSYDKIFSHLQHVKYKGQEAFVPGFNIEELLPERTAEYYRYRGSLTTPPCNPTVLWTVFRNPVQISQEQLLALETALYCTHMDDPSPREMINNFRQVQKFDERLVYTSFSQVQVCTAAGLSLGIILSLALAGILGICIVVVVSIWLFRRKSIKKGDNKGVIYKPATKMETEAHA

h-CA IX = h-CA IX (Homo sapiens, UniProt Q16790); assay: stopped-flow CO2 hydrase assay, h-CA IX; details: for selectivity on h-CA IX over h-CA XII (in words): comparison of Ki values
[2] = system: bronchial adenocarcinoma cells (A549); assay: cell viability (MTT assay), A549; format: cell-based, human; details: for IC50: Homo sapiens, A549, 48 h exposure, nonlinear regression, predictive estimates
Procedure: The medium was supplemented with 10% heat-inactivated fetal bovine serum (FBS), 1% penicillin/streptomycin and 1% sodium pyruvate.
as §1, with “Next, the medium was removed, and cells were treated with tested compounds, dissolved in dimethyl sulfoxide (DMSO) to achieve concentrations ranging from 0 µM (untreated control = CTRL) to 150 µM.” left out
as §2

A549 cells [3] = assay: cytotoxicity assay (LDH test); format: cell-based, human; details: 24 h; for LDH released, fold increase respective to untreated cells: A549, 150 µM; for cytotoxicity occurrence (LDH release): A549, 0–150 µM
Procedure: as §1
To assess cytotoxicity in A549 cells after their treatment with the tested compounds, the amount of lactate dehydrogenase released into the culture medium was quantified using the CytoTox 96 non-radioactive cytotoxicity assay (Promega, Madison, WI, USA) according to the manufacturer’s instructions. Cell supernatants were collected from the same cultures processed for the MTT assay after 24 h of treatment and the optical density values obtained were normalized to those measured from the MTT assay.

A549 cells [4] = assay: cell cycle analysis (PI flow cytometry); format: cell-based, human; details: A549, 0–150 µM, 48 h; S phase cells increased vs untreated control
Procedure: as §1
[…] At each time point, cells were detached using StemPro™ Accutase™, pelleted by centrifugation, and fixed overnight at 4 °C in 70% v/v cold ethanol. After fixation, cells were processed as described elsewhere. The PI fluorescence was detected by a flow cytometer equipped with a 488 nm laser (CytoFlex flow cytometer, Beckman Coulter, CA, USA) in the FL-3 channel. A minimum of 10,000 events/sample were acquired and analyzed with the CytExpert Software, version 2.3 (Beckman Coulter, CA, USA), and the percentages of cells in the G1, S, or G2 phase of the cell cycle were calculated using the ModFit LT™ Software, version 5.0 (Verity Software House, Topsham, ME, USA).

Compound | IC50 [1] [µM] | Ki (h-CA I) [µM] | Ki (h-CA II) [µM] | Ki (h-CA XII) [µM] | Ki (h-CA IX) [µM] | SI (selectivity index, IC50 BEAS/IC50 A549 ratio) ([2]; 48 h) | IC50 [2] [µM] | LDH released, fold increase respective to untreated cells (A549 cells [3]) [fold] | selectivity on h-CA IX over h-CA XII (in words) (h-CA IX) | arrest of cell cycle progression (A549 cells [4]) | cytotoxicity occurrence (LDH release) (A549 cells [3]) | cell viability of BEAS cells ([1]; 1 µM, 48 h) | cell viability of A549 cells ([2]; 1 µM, 48 h) | selectivity on h-CA XII over h-CA IX (h-CA XII; ratio of Ki values) [fold]
COc1ccc(N2CCN(C(=O)c3cc4ccc(O)cc4oc3=O)CC2)cc1 [Compound 44, 7-Hydroxy-3-(4-(4-Methoxyphenyl)piperazine-1-Carbonyl)-2H-Chromen-2-One] | 203.5 ± 1.19 | > 100 | > 100 | 22.5 | 32.8 | 1.888 | 108 ± 1.28 | – | – | – | – | – | – | –
COc1ccc(CNC(=O)c2cc3ccc(O)cc3oc2=O)cc1 [Compound 9, 7-Hydroxy-N-(4-Methoxylbenzyl)-2-Oxo-2H-Chromene-3-Carboxamide] | 116 ± 1.22 | > 100 | > 100 | 9.1 | 53.8 | – | 68.2 ± 1.11 | ~3 | – | – | – | – | – | –
O=C(NCc1ccccc1Cl)c1cc2ccc(O)cc2oc1=O [Compound 19, N-(2-Chlorobenzyl)-7-Hydroxy-2-Oxo-2H-Chromene-3-Carboxamide] | 40.7 ± 1.1 | > 100 | > 100 | 64.9 | 19.3 | 1.271 | 32 ± 1.22 | – | about three times more active on h-CA IX | – | – | – | – | –
O=C(NCCc1cccc(Cl)c1)c1cc2ccc(O)cc2oc1=O [Compound 30, N-(3-Chlorophenethyl)-7-Hydroxy-2-Oxo-2H-Chromene-3-Carboxamide] | 87.4 ± 1.06 | > 100 | > 100 | 55.8 | 7.5 | 1.465 | 59.7 ± 1.07 | – | good selectivity against h-CA IX over h-CA XII | – | – | – | – | –
O=C(NCc1ccc(Cl)c(Cl)c1)c1cc2ccc(O)cc2oc1=O [Compound 23, N-(3,4-Dichlorobenzyl)-7-Hydroxy-2-Oxo-2H-Chromene-3-Carboxamide] | 73.4 ± 1.1 | > 100 | > 100 | 21 | 46.2 | – | 39.5 ± 1.06 | – | – | able to arrest cells at the G1/S checkpoint | None of the compounds administered displayed cytotoxicity | – | – | –
O=C(NCCc1ccccc1Cl)c1cc2ccc(O)cc2oc1=O [Compound 29, N-(2-Chlorophenethyl)-7-Hydroxy-2-Oxo-2H-Chromene-3-Carboxamide] | 77.5 ± 1.08 | > 100 | > 100 | 43.1 | 5.5 | 1.386 | 55.9 ± 1.12 | – | good selectivity against h-CA IX over h-CA XII | – | – | – | – | –
COc1cccc2c1C(=O)c1c(O)c3c(c(O)c1C2=O)C[C@@](O)(C(=O)CO)C[C@@H]3O[C@H]1C[C@H](N)[C@H](O)[C@H](C)O1 [doxorubicin, reference compound] | – | – | – | – | – | – | – | – | – | – | – | dramatically decreased | dramatically decreased | –
Cc1ccccc1CNC(=O)c1cc2ccc(O)cc2oc1=O [Compound 5, 7-Hydroxy-N-(2-Methylbenzyl)-2-Oxo-2H-Chromene-3-Carboxamide] | 181.2 ± 1.2 | > 100 | > 100 | 35.5 | 25.4 | 0.730 | 248.2 ± 1.57 | – | – | – | – | – | – | –
Cc1ccc(CNC(=O)c2cc3ccc(O)cc3oc2=O)cc1 [Compound 7, 7-Hydroxy-N-(4-Methylbenzyl)-2-Oxo-2H-Chromene-3-Carboxamide] | 157.8 ± 1.07 | > 100 | > 100 | 8.8 | 33.7 | – | 85.8 ± 1.13 | ~2 | – | – | – | – | – | –
Cc1cccc(CNC(=O)c2cc3ccc(O)cc3oc2=O)c1 [Compound 6, 7-Hydroxy-N-(3-Methylbenzyl)-2-Oxo-2H-Chromene-3-Carboxamide] | 117.9 ± 1.08 | > 100 | > 100 | 9.3 | 82.5 | 1.309 | 90 ± 1.07 | – | – | – | – | – | – | –
Cc1ccc(N2CCN(C(=O)c3cc4ccc(O)cc4oc3=O)CC2)cc1C [Compound 38, 3-(4-(3,4-Dimethylphenyl)piperazine-1-Carbonyl)-7-Hydroxy-2H-Chromen-2-One] | 187.4 ± 1.27 | > 100 | > 100 | 9.2 | 70.3 | 3.747 | 50 ± 1.28 | – | – | able to arrest cells at the G1/S checkpoint | None of the compounds administered displayed cytotoxicity | – | – | –
O=C(c1cc2ccc(O)cc2oc1=O)N1CCN(c2ccccc2)CC1 [Compound 32, 7-Hydroxy-3-(4-Phenylpiperazine-1-Carbonyl)-2H-Chromen-2-One] | 399.7 ± 1.68 | > 100 | > 100 | 9.1 | 49.3 | 2.547 | 156.9 ± 1.12 | – | – | – | – | – | – | ~5
O=C(c1cc2ccc(O)cc2oc1=O)N1CCN(c2ccc(C(F)(F)F)cc2)CC1 [Compound 45, 3-(4-(4-Trifluoromethylphenyl)piperazine-1-Carbonyl)-7-Hydroxy-2H-Chromen-2-One] | 53.9 ± 1.07 | > 100 | > 100 | 8.4 | 22.6 | 2.096 | 25.7 ± 1.14 | – | – | – | – | – | – | –
O=C(NCc1ccc(Cl)cc1Cl)c1cc2ccc(O)cc2oc1=O [Compound 22, N-(2,4-Dichlorobenzyl)-7-Hydroxy-2-Oxo-2H-Chromene-3-Carboxamide] | 95.8 ± 1.07 | > 100 | > 100 | 84.1 | 22 | 1.150 | 83.3 ± 1.08 | – | – | – | – | – | – | –
